Assay results taken from US20080108548A1, “Food Composition For Rapidly Attenuating Inflammatory Responses” (priority 2004, published 2008).

Test system: rats subjected to hemorrhagic shock
Experimental: Using the non-lethal hemorrhagic shock model as described earlier (Luyer et al., Ann. Surg. 239:257-264, 2004; Luyer et al. Shock 21:65-71, 2004) rats were anesthetised, the femoral artery was dissected and cannulated. Mean arterial pressure (MAP) and heart rate were continuously recorded for 50 min. At the time of shock (t=0), 2.1 ml blood per 100 g body weight was taken at a rate of 1 ml/min (34-40% of total blood volume). At 45 min before induction of hemorrhagic shock, rats were subjected to vagotomy or sham vagotomy. In vagotomised animals a ventral cervical incision was made and both vagal trunks exposed. The vagus nerve was ligated at both ends using 4-0 silk suture and divided. In sham-operated animals, both vagal trunks were exposed, but the vagus nerve was not ligated and divided.
Before the experiments, 18 rats were fasted, 18 were fed with low-fat feed (6.9 en % protein, 75.4 en % carbohydrate, 16.7 en % fat) and 18 were fat with a high-fat feed according to the invention (6.9 en % protein, 40.9 en % carbohydrate, 52.2 en % fat). The low-fat and high-fat feeds were isocaloric. 3 ml was given at 18 h before hemorrhagic shock, and 0.75 ml at 2 h and 45 min before hemorrhagic by oral gavage. Fasted and high-fat fed rats underwent vagotomy or sham vagotomy. To investigate the role of CCK, six high-fat fed animas were injected i.v. with CCK-A (500 μg/kg) and CCK-B (500 μg/kg) receptor antagonists and six with control vehicle 25 min before induction of shock. […] At 90 min after hemorrhagic shock, blood was taken and segments of small bowel were harvested for determination of gut permeability. Plasma was separated by centrifugation, frozen immediately and stored until analysis.

[1] = high-fat fed rats given the blocker i.v. 25 min before shock, compared to high-fat controls
[2] = high-fat rats treated with chlorisondamine versus chlorisondamine-treated fasted rats

C[N+](C)(C)CC[N+]1(C)Cc2c(Cl)c(Cl)c(Cl)c(Cl)c2C1 [chlorisondamine]
bacterial translocation to distant organs [1]: increased
plasma endotoxin [1]: elevated
inhibitory effect of high-fat enteral nutrition on circulating TNF-α (high-fat fed sham-vagotomised rats, i.v. 25 min before shock): abrogated
IL-6 levels [2]: comparable
TNF-α levels [2]: comparable
MAP (rat, in vivo): significantly lower
additional hypotension or changes in heart rate (rat, in vivo): did not cause
decrease in MAP associated with administration (rat, in vivo, iv): 100 to 65 mm Hg
